In patent US11945822B2, “Pyrazolo-triazine and/or pyrazolo-pxrimidine derivatives as selective inhibitor of cyclin dependent kinase” (QURIENT CO., LTD., priority 2018, dated 2024):

System: H460
Assay: Cellular H460 viability assay (CellTiter-Glo, 72 hours)
Assay type: cell-based
Conditions: Homo sapiens, NCI-H460
In short: (§1)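 Luminescent ATP read-out (CellTiter-Glo) after 72 h compound exposure at 37 °C/5% CO2; duplicate wells; vehicle control DMSO <0.1% final; seeding density set per cell line.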

IC50 | SMILES
< 1000 nM | NC1CCN(c2nc(NCc3ccccc3-n3cccn3)n3ncc(Br)c3n2)CC1 [Compound 18]
< 1000 nM | CC(C)c1cnn2c(NCc3ccccc3-c3nc4ccccc4o3)nc(N3CCC(N)CC3)nc12 [Compound 97]
< 1000 nM | CC(C)c1cnn2c(NCc3ccccc3-n3cc4c(n3)CCCC4)nc(N3CCC(N)CC3)nc12 [Compound 109]

System: RPMI-8226
Assay: Cellular RPMI-8226 viability assay (CellTiter-Glo, 72 hours)
Assay type: cell-based
Conditions: Homo sapiens
In short: as §1

IC50 | SMILES
< 1000 nM | NC1CCN(c2nc(NCc3ccccc3-n3cccn3)n3ncc(Br)c3n2)CC1 [Compound 18]
< 1000 nM | CC(C)c1cnn2c(NCc3ccccc3-c3nc4ccccc4o3)nc(N3CCC(N)CC3)nc12 [Compound 97]
< 1000 nM | CC(C)c1cnn2c(NCc3ccccc3-n3cc4c(n3)CCCC4)nc(N3CCC(N)CC3)nc12 [Compound 109]

Target: T1, CDK5/p25 (Homo sapiens, UniProt Q00535)
T1 construct: purchased Invitrogen PR8543B
Assay: Enzymatic assay for CDK5 (FRET based LANCE Ultra kinase assay)
Assay type: biochemical
Conditions: read-out: CDK5 enzymatic activity (IC50 range)
In short: (§2)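 LANCE Ultra TR-FRET: ULight-MBP peptide (68 nM) with ATP at Km, […], 60 min at 23° C. EDTA plus Eu-anti-phospho-MBP added, another 60 min, then 665/615 nm emission read. Compounds tested as 8-dose 4-fold DMSO dilutions.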

T1 sequence (Q00535 whole entry): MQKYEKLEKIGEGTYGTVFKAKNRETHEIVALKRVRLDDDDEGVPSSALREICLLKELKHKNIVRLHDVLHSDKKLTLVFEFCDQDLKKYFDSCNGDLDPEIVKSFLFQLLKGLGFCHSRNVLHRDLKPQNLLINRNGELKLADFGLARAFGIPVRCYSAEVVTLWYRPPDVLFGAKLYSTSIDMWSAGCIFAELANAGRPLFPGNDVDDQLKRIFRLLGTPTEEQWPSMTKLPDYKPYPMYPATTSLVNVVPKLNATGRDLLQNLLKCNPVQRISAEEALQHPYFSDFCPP
T1 sequence (Q15078 99-307 partner limits assumed): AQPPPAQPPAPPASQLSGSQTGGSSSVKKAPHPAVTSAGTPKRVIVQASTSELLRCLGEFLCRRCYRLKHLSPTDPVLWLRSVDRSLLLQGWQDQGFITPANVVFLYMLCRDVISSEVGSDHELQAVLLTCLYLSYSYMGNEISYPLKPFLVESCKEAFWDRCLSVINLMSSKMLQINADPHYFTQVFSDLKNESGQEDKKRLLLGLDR

IC50 | SMILES
< 100 nM | NC1CCN(c2nc(NCc3ccccc3-n3cccn3)n3ncc(Br)c3n2)CC1 [Compound 18]
100 to 1000 nM | CC(C)c1cnn2c(NCc3ccccc3-c3nc4ccccc4o3)nc(N3CCC(N)CC3)nc12 [Compound 97]
100 to 1000 nM | CC(C)c1cnn2c(NCc3ccccc3-n3cc4c(n3)CCCC4)nc(N3CCC(N)CC3)nc12 [Compound 109]

Target: T2, CDK7/Cyclin H/MNAT1 (Homo sapiens, UniProt P50613)
T2 construct: purchased Invitrogen PR6749B
Assay: Enzymatic assay for CDK7 (FRET based LANCE Ultra kinase assay)
Assay type: biochemical
Conditions: CDK7 over CDK1
In short: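 Inhibition was measured at Km ATP by time-resolved FRET between a Eu anti-phospho antibody and a phosphorylated ULight peptide. The enzyme was the purified CDK7/cyclin complex, and data were curve-fitted.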

T2 sequence (P50613 whole entry): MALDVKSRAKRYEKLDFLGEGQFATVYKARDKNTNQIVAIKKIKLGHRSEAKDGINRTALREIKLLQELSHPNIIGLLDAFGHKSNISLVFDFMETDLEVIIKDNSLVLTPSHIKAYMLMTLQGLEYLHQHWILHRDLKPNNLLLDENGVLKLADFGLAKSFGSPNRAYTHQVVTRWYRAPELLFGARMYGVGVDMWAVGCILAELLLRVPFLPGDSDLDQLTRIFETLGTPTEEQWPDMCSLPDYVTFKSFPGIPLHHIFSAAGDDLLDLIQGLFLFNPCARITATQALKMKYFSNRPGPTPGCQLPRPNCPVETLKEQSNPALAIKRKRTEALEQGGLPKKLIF
T2 sequence (P51946 whole entry partner): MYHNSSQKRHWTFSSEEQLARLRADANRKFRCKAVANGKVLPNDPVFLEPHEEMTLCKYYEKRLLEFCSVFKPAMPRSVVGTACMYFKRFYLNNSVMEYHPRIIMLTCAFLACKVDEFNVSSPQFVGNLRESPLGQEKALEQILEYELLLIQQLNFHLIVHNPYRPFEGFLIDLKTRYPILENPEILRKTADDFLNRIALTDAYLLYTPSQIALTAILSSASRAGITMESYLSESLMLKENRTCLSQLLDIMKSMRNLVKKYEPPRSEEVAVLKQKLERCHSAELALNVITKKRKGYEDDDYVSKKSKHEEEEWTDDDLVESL
T2 sequence (P51948 whole entry partner): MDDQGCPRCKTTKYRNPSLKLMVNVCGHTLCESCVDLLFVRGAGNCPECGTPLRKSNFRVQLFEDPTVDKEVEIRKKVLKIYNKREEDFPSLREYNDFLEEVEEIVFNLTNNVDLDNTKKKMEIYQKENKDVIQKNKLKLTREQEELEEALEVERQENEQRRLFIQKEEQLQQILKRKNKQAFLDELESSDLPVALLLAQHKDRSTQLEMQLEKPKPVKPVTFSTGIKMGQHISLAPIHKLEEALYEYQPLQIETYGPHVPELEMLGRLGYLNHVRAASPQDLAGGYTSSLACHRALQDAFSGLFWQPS

SMILES | CDK1/CDK7: Selectivity of CDK7 inhibition over CDK1 inhibition
NC1CCN(c2nc(NCc3ccccc3-n3cccn3)n3ncc(Br)c3n2)CC1 [Compound 18] | B (B=less than 200 fold, but greater than 20 fold)
CC(C)c1cnn2c(NCc3ccccc3-c3nc4ccccc4o3)nc(N3CCC(N)CC3)nc12 [Compound 97] | B (B=less than 200 fold, but greater than 20 fold)
CC(C)c1cnn2c(NCc3ccccc3-n3cc4c(n3)CCCC4)nc(N3CCC(N)CC3)nc12 [Compound 109] | A (A=greater than 200 fold)

Same assay, conditions: CDK7 over CDK2

SMILES | CDK2/CDK7: Selectivity of CDK7 inhibition over CDK2 inhibition
NC1CCN(c2nc(NCc3ccccc3-n3cccn3)n3ncc(Br)c3n2)CC1 [Compound 18] | B (B=less than 200 fold, but greater than 20 fold)
CC(C)c1cnn2c(NCc3ccccc3-c3nc4ccccc4o3)nc(N3CCC(N)CC3)nc12 [Compound 97] | B (B=less than 200 fold, but greater than 20 fold)
CC(C)c1cnn2c(NCc3ccccc3-n3cc4c(n3)CCCC4)nc(N3CCC(N)CC3)nc12 [Compound 109] | A (A=greater than 200 fold)

Same assay, conditions: CDK7 over CDK5

SMILES | CDK5/CDK7: Selectivity of CDK7 inhibition over CDK5 inhibition
NC1CCN(c2nc(NCc3ccccc3-n3cccn3)n3ncc(Br)c3n2)CC1 [Compound 18] | C (C=less than 20 fold)
CC(C)c1cnn2c(NCc3ccccc3-c3nc4ccccc4o3)nc(N3CCC(N)CC3)nc12 [Compound 97] | B (B=less than 200 fold, but greater than 20 fold)
CC(C)c1cnn2c(NCc3ccccc3-n3cc4c(n3)CCCC4)nc(N3CCC(N)CC3)nc12 [Compound 109] | B (B=less than 200 fold, but greater than 20 fold)

Same assay, conditions: read-out: CDK7 enzymatic activity (IC50 range)

IC50 | SMILES
< 100 nM | NC1CCN(c2nc(NCc3ccccc3-n3cccn3)n3ncc(Br)c3n2)CC1 [Compound 18]
< 100 nM | CC(C)c1cnn2c(NCc3ccccc3-c3nc4ccccc4o3)nc(N3CCC(N)CC3)nc12 [Compound 97]
< 100 nM | CC(C)c1cnn2c(NCc3ccccc3-n3cc4c(n3)CCCC4)nc(N3CCC(N)CC3)nc12 [Compound 109]

System: MV4-11
Assay: Cellular MV4-11 viability assay (CellTiter-Glo, 72 hours)
Assay type: cell-based
Conditions: Homo sapiens
In short: as §1

IC50 | SMILES
< 1000 nM | NC1CCN(c2nc(NCc3ccccc3-n3cccn3)n3ncc(Br)c3n2)CC1 [Compound 18]
< 1000 nM | CC(C)c1cnn2c(NCc3ccccc3-c3nc4ccccc4o3)nc(N3CCC(N)CC3)nc12 [Compound 97]
< 1000 nM | CC(C)c1cnn2c(NCc3ccccc3-n3cc4c(n3)CCCC4)nc(N3CCC(N)CC3)nc12 [Compound 109]

System: MOLT-4
Assay: Cellular MOLT-4 viability assay (CellTiter-Glo, 72 hours)
Assay type: cell-based
Conditions: Homo sapiens, MOLT4 viability assay
In short: as §1

IC50 | SMILES
1000 to 10000 nM | NC1CCN(c2nc(NCc3ccccc3-n3cccn3)n3ncc(Br)c3n2)CC1 [Compound 18]
1000 to 10000 nM | CC(C)c1cnn2c(NCc3ccccc3-c3nc4ccccc4o3)nc(N3CCC(N)CC3)nc12 [Compound 97]
< 1000 nM | CC(C)c1cnn2c(NCc3ccccc3-n3cc4c(n3)CCCC4)nc(N3CCC(N)CC3)nc12 [Compound 109]

Target: T3, CDK1/Cyclin B (Homo sapiens, UniProt P06493)
T3 construct: purchased Invitrogen PR4768C
Assay: Enzymatic assay for CDK1 (FRET based LANCE Ultra kinase assay)
Assay type: biochemical
Conditions: read-out: CDK1 enzymatic activity (IC50 range)
In short: as §2

T3 sequence (P06493 whole entry): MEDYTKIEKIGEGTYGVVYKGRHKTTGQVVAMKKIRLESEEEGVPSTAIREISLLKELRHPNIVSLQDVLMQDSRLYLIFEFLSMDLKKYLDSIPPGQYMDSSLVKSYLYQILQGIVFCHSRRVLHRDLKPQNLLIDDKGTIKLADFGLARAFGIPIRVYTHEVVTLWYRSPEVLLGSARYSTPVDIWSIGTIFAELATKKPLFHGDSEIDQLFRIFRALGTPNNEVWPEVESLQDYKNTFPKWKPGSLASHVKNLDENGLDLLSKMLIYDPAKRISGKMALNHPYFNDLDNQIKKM
T3 sequence (P14635 whole entry partner): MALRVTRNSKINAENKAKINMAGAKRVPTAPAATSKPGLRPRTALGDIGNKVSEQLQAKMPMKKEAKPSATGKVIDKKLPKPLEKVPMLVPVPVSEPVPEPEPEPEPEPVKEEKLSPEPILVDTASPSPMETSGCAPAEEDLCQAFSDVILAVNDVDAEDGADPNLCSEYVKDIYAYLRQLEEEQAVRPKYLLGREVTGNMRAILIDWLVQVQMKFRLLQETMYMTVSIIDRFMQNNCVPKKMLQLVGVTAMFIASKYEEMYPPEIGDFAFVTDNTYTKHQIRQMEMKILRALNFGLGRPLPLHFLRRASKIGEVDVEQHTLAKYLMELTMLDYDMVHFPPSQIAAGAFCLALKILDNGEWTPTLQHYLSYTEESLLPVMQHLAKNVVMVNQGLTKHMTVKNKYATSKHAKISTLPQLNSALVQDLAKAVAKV

IC50 | SMILES
100 to 1000 nM | NC1CCN(c2nc(NCc3ccccc3-n3cccn3)n3ncc(Br)c3n2)CC1 [Compound 18]
100 to 1000 nM | CC(C)c1cnn2c(NCc3ccccc3-c3nc4ccccc4o3)nc(N3CCC(N)CC3)nc12 [Compound 97]
> 1000 nM | CC(C)c1cnn2c(NCc3ccccc3-n3cc4c(n3)CCCC4)nc(N3CCC(N)CC3)nc12 [Compound 109]

System: HCT116
Assay: Cellular HCT116 viability assay (CellTiter-Glo, 72 hours)
Assay type: cell-based
Conditions: Homo sapiens, HCT-116
In short: as §1

IC50 | SMILES
< 1000 nM | NC1CCN(c2nc(NCc3ccccc3-n3cccn3)n3ncc(Br)c3n2)CC1 [Compound 18]
< 1000 nM | CC(C)c1cnn2c(NCc3ccccc3-c3nc4ccccc4o3)nc(N3CCC(N)CC3)nc12 [Compound 97]
< 1000 nM | CC(C)c1cnn2c(NCc3ccccc3-n3cc4c(n3)CCCC4)nc(N3CCC(N)CC3)nc12 [Compound 109]

Target: T4, CDK2/Cyclin A (Homo sapiens, UniProt P24941)
T4 construct: purchased Invitrogen PV6290
Assay: Enzymatic assay for CDK2 (FRET based LANCE Ultra kinase assay)
Assay type: biochemical
Conditions: read-out: CDK2 enzymatic activity (IC50 range)
In short: as §2

IC50 | SMILES
100 to 1000 nM | NC1CCN(c2nc(NCc3ccccc3-n3cccn3)n3ncc(Br)c3n2)CC1 [Compound 18]
100 to 1000 nM | CC(C)c1cnn2c(NCc3ccccc3-c3nc4ccccc4o3)nc(N3CCC(N)CC3)nc12 [Compound 97]
100 to 1000 nM | CC(C)c1cnn2c(NCc3ccccc3-n3cc4c(n3)CCCC4)nc(N3CCC(N)CC3)nc12 [Compound 109]
